# Measured values taken from publication PMC6627609, “Targeting Quorum Sensing: High-Throughput Screening to Identify Novel LsrK Inhibitors” (International Journal of Molecular Sciences, 2019).
# Structures can show the parent of a compound that is named as a salt.
# Biological target: LsrK (Salmonella typhimurium, UniProt Q8ZKQ6)
# Test: biochemical
# Type: biochemical, S. typhimurium
# Details: for Inhibition (%): 50 µM
# Sequence of LsrK (Q8ZKQ6 whole entry): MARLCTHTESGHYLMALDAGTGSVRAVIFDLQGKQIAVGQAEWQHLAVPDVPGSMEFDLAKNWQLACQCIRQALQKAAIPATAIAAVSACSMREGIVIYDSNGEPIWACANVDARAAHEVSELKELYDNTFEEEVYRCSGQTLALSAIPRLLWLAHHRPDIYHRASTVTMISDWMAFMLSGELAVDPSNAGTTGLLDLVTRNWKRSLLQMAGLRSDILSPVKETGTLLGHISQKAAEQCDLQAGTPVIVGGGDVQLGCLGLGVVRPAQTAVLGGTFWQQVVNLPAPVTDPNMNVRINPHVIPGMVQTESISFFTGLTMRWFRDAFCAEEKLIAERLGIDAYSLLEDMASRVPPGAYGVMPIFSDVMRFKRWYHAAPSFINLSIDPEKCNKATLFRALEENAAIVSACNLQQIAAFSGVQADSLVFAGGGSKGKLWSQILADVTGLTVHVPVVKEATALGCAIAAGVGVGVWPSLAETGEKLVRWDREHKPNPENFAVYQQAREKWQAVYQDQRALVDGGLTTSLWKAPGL
SMILES,inhibition at 50 µM [%],also measured
COc1cc([C@@H]2c3cc4c(cc3[C@@H](O[C@@H]3O[C@@H]5CO[C@@H](C)O[C@H]5[C@H](O)[C@H]3O)[C@H]3COC(=O)[C@H]23)OCO4)cc(OC)c1O [ETOPOSIDE],1,
CC(=O)O[C@H]1CCC2(C)C3=C(CCC2C1(C)C)[C@@]1(C)CC[C@@H](C(C)CCC=C(C)C)[C@]1(C)CC3 (stereo partly shown) [EUPHOL ACETATE],,Inhibition (%): 1
CC(=O)O[C@H]1[C@H]2[C@@H](OC(=O)Cc3ccccc3)[C@@H](C)C[C@]2(OC(C)=O)C(=O)/C(C)=C/[C@@H]2[C@H](CC[C@@]13CO3)C2(C)C [EUPHORBIASTEROID],,Inhibition (%): 1
C=C1C[C@@H]2[C@H](CC[C@]3(C)C(=O)CC[C@@H]23)[C@@]2(C)C=CC(=O)C=C12 [EXEMESTANE],11,
O=C(O)CCC(=O)c1ccc(-c2ccccc2)cc1 [FENBUFEN],2,
CC(NCCC(c1ccccc1)c1ccccc1)c1ccccc1 (stereo not shown) [FENDILINE HYDROCHLORIDE],0,
CC(C)OC(=O)C(C)(C)Oc1ccc(C(=O)c2ccc(Cl)cc2)cc1 [FENOFIBRATE],1,
CC(C)(C(=O)O)c1ccc(C(O)CCCN2CCC(C(O)(c3ccccc3)c3ccccc3)CC2)cc1 (stereo not shown) [FEXOFENADINE HYDROCHLORIDE],0,
CC(C)(C)NC(=O)[C@H]1CC[C@H]2[C@@H]3CC[C@H]4NC(=O)C=C[C@]4(C)[C@H]3CC[C@]12C [FINASTERIDE],1,
O=c1c(O)c(-c2ccc(O)c(O)c2)oc2cc(O)ccc12 [FISETIN],33,
CS(=O)(=O)c1ccc([C@@H](O)[C@@H](CF)NC(=O)C(Cl)Cl)cc1 [FLORFENICOL],2,
O=c1[nH]c(=O)n([C@H]2C[C@H](O)[C@@H](CO)O2)cc1F [FLOXURIDINE],0,
Nc1[nH]c(=O)ncc1F [FLUCYTOSINE],0,
Nc1nc(F)nc2c1ncn2[C@@H]1O[C@H](COP(=O)(O)O)[C@@H](O)[C@@H]1O [FLUDARABINE PHOSPHATE],0,
CC(=O)OCC(=O)[C@@]1(O)CC[C@H]2[C@@H]3CCC4=CC(=O)CC[C@]4(C)[C@@]3(F)[C@@H](O)C[C@@]21C [FLUDROCORTISONE ACETATE],2,
O=C(O)c1ccccc1Nc1cccc(C(F)(F)F)c1 [FLUFENAMIC ACID],62,
CC(=O)OCC(=O)[C@@]12OC(C)(C)O[C@@H]1C[C@H]1[C@@H]3C[C@H](F)C4=CC(=O)C=C[C@]4(C)[C@@]3(F)[C@@H](O)C[C@@]12C [FLUOCINONIDE],3,
O=C1OC2(c3ccc(O)cc3Oc3cc(O)ccc32)c2ccccc21 [FLUORESCEIN],1,
O=c1[nH]cc(F)c(=O)[nH]1 [FLUOROURACIL],0,
CC(C)C(=O)Nc1ccc([N+](=O)[O-])c(C(F)(F)F)c1 [FLUTAMIDE],2,
CC(C)n1c(/C=C/C(O)CC(O)CC(=O)O)c(-c2ccc(F)cc2)c2ccccc21 (stereo not shown) [FLUVASTATIN],6,
Nc1nc(=O)c2nc(CNc3ccc(C(=O)N[C@@H](CCC(=O)O)C(=O)O)cc3)cnc2[nH]1 [FOLIC ACID],90,
O=C(O)P(=O)(O)O [FOSCARNET SODIUM],1,
C[C@@H]1O[C@@H]1P(=O)(O)O [FOSFOMYCIN CALCIUM],1,
O=C(O)c1ccccc1OP(=O)(O)O [FOSFOSAL],0,
COc1cc2ccc(=O)oc2c(OC)c1OC [FRAXIDIN METHYL ETHER],1,

SMILES,inhibition at 50 µM [%],also measured
C[C@H]1C(=O)CC[C@@H]2[C@]1(C)CC[C@H]1[C@@]2(C)CC[C@@]2(C)[C@@H]3CC(C)(C)CC[C@]3(C)CC[C@]12C [FRIEDELIN],1,
Cc1cccc(C)c1NC(=O)c1ccccc1C(=O)O [FTAXILIDE],4,
CC[C@H](CC[C@@H](C)[C@H]1CC[C@H]2[C@@H]3CC[C@H]4C[C@@H](O)CC[C@]4(C)[C@H]3CC[C@]12C)C(C)C [FUCOSTANOL],,Inhibition (%): 1
Cc1cc(O)c(C=O)c2c1C(=O)Oc1c(COC(=O)/C=C/C(=O)O)c(O)c(C(=O)O)c(C)c1O2 [FUMARPRO[…]],150,IC50: 7 µM
CCOC(=O)c1ncn2c1CN(C)C(=O)c1cc(F)ccc1-2 [FUMAZENIL],,Inhibition (%): 0
O=C1OC(CN2CCOCC2)CN1/N=C/c1ccc([N+](=O)[O-])o1 (stereo not shown) [FURALTADONE],2,
Cl.O=c1[nH]oc2c1CCNC2 [GABOXADOL HYDROCHLORIDE],,Inhibition (%): 1
CC[N+](CC)(CC)CCOc1cccc(OCC[N+](CC)(CC)CC)c1OCC[N+](CC)(CC)CC [GALLAMINE TRIETHIODIDE],1,
CC(=O)O[C@@H]1C[C@H]2C(C)(C)C(=O)C=C[C@]2(C)[C@H]2CC[C@@]3(C)[C@H](c4ccoc4)OC(=O)[C@H]4O[C@]43[C@@]21C [GEDUNIN],0,
CO/N=C1\CN(c2nc3c(cc2F)c(=O)c(C(=O)O)cn3C2CC2)CC1CN (stereo not shown) [GEMIFLOXACIN MESYLATE],0,
O=c1c(-c2ccc(O)cc2)coc2cc(O)cc(O)c12 [GENISTEIN],2,
CN(C)c1ccc(C(=C2C=CC(=[N+](C)C)C=C2)c2ccc(N(C)C)cc2)cc1 [GENTIAN VIOLET],11,
Cc1ccc(S(=O)(=O)NC(=O)NN2CC3CCCC3C2)cc1 (stereo not shown) [GLICLAZIDE],1,
Cc1cnc(C(=O)NCCc2ccc(S(=O)(=O)NC(=O)NC3CCCCC3)cc2)cn1 [GLIPIZIDE],1,
O=C1O[C@H](CO)[C@@H](O)[C@H](O)[C@H]1O [GLUCONOLACTONE],0,
N[C@H]1C(O)O[C@H](CO)[C@@H](O)[C@@H]1O (stereo partly shown) [GLUCOSAMINE HYDROCHLORIDE],1,
NC(=O)CC[C@H](N)C(=O)O [GLUTAMINE (L)],,Inhibition (%): 0
N[C@@H](CCC(=O)N[C@@H](CS)C(=O)NCC(=O)O)C(=O)O [GLUTATHIONE],1,
C[C@H](CCC(=O)NCC(=O)O)[C@H]1CC[C@H]2[C@@H]3[C@H](O)C[C@@H]4C[C@H](O)CC[C@]4(C)[C@H]3C[C@H](O)[C@]12C [GLYCOCHOLIC ACID],1,
C[N+]1(C)CCC(OC(=O)C(O)(c2ccccc2)C2CCCC2)C1 (stereo not shown) [GLYCOPYRROLATE],0,
N[C@@H](C(=O)O)[C@@H](O)[C@H](O)[C@H](O)CO [GL[…]],1,
O=c1c(O)c(-c2ccc(O)c(O)c2)oc2c(O)c(O)cc(O)c12 [GOSSYPETIN],115,
O=c1c(O)c(-c2ccc(O)c(O)c2)oc2c(O[C@@H]3O[C@H](CO)[C@@H](O)[C@H](O)[C@H]3O)c(O)cc(O)c12 [GOSSYPIN],,Inhibition (%): 57
Cc1cc2c(C(C)C)c(O)c(O)c(C=O)c2c(O)c1-c1c(C)cc2c(C(C)C)c(O)c(O)c(C=O)c2c1O [GOSSYPOL],83,
COC1=CC(=O)C[C@@H](C)[C@]12Oc1c(Cl)c(OC)cc(OC)c1C2=O [GRISEOFULVIN],1,
COc1ccccc1OCC(O)CO (stereo not shown) [GUAIFENESIN],0,

SMILES,inhibition at 50 µM [%],also measured
N=C(N)N/N=C/c1c(Cl)cccc1Cl [GUANABENZ ACETATE],0,
CC1=C(CCC(=O)O)c2cc3[nH]c(cc4nc(cc5[nH]c(cc1n2)c(C)c5C(C)O)C(C)=C4C(C)O)c(C)c3CCC(=O)O (stereo not shown) [HAEMATOPORPHYRIN],55,
CC1(C)O[C@@H]2C[C@H]3[C@@H]4CCC5=CC(=O)CC[C@]5(C)[C@@]4(F)[C@@H](O)C[C@]3(C)[C@]2(C(=O)CCl)O1 [HALCINONIDE],0,
CC1=NCCc2c1[nH]c1cc(O)ccc21 [HARMALOL HYDROCHLORIDE],4,
Cc1nccc2c1[nH]c1cc(O)ccc12 [HARMOL HYDROCHLORIDE],3,
C=C1C(=O)O[C@@H]2C[C@@]3(C)CCC[C@H](C)C3=C[C@H]12 [HELENINE],2,
O=C1C=C2CC3(O)COc4c(ccc(O)c4O)C3=C2C=C1O (stereo not shown) [HEMATEIN],107,
C[N+]1(C)CCOC(O)(c2ccc(-c3ccc(C4(O)C[N+](C)(C)CCO4)cc3)cc2)C1.[Br-].[Br-] (stereo not shown) [HEMICHOLINIUM BROMIDE],,Inhibition (%): 1
COc1ccc([C@@H]2CC(=O)c3c(O)cc(O)cc3O2)cc1O [HESPERETIN],0,
COc1ccc([C@@H]2CC(=O)c3c(O)cc(O[C@@H]4O[C@H](CO[C@@H]5O[C@@H](C)[C@H](O)[C@@H](O)[C@H]5O)[C@@H](O)[C@H](O)[C@H]4O)cc3O2)cc1O [HESPERIDIN],,Inhibition (%): 1
COc1cc(O)c2c(=O)cc(C)oc2c1CC=C(C)C [HETEROPEUCENIN. METHYL ETHER],1,
Oc1c(Cl)cc(Cl)c(Cl)c1Cc1c(O)c(Cl)cc(Cl)c1Cl [HEXACHLOROPHENE],112,
C[N+](C)(C)CCCCCC[N+](C)(C)C [HEXAMETHONIUM BROMIDE],2,
CC[C@H](c1ccc(O)cc1)[C@@H](CC)c1ccc(O)cc1 [HEXESTROL],3,
CCCCCCc1ccc(O)cc1O [HEXYLRESORCINOL],0,
NCCc1c[nH]cn1 [HISTAMINE DIHYDROCHLORIDE],3,
C[N+]1(C)[C@@H]2CC[C@H]1C[C@@H](OC(=O)C(O)c1ccccc1)C2 (stereo partly shown) [HOMATROPINE METHYLBROMIDE],0,
CC[n+]1c(-c2ccccc2)c2cc(N)ccc2c2ccc(N)cc21 [HOMIDIUM BROMIDE],72,
CCN(CC)CCNc1ccc(CO)c2sc3ccccc3c(=O)c12 [HYCANTHONE],1,
Oc1ccc(O)cc1 [HYDROQUINONE],0,
CCCCCC(=O)O[C@]1(C(C)=O)CC[C@H]2[C@@H]3CCC4=CC(=O)CC[C@]4(C)[C@H]3CC[C@@]21C [HYDROXYPROGESTERONE CAPROATE],3,
Cc1cccc(C(=O)O)c1O [HYDROXYTOLUIC ACID],1,
OCCOCCN1CCN(C(c2ccccc2)c2ccc(Cl)cc2)CC1 (stereo not shown) [HYDROXYZINE PAMOATE],125,
O=c1[nH]cnc2nc[nH]c12 [HYPOXANTHINE],2,
COc1ccc2c(C)cc(=O)oc2c1 [H[…] ETHER],0,
Cc1cc(O)c(C=O)c(O)c1C(=O)O [H[…]],1,
